For this experiment, the target named is T1, Na+, K+-ATPase (Sus scrofa, UniProt P05024).
T1 construct: gene ATP1A1; purified from pig kidney outer medulla
The experiment in a line: Na+,K+-ATPase activity inhibition, enzyme purified from pig kidney (Figure S4). Type of experiment: biochemical.

The values below come from paper PMC10969377, “N-3-Methylbutyl-benzisoselenazol-3(2H)-one Exerts Antifungal Activity In Vitro and in a Mouse Model of Vulvovaginal Candidiasis” (Current Issues in Molecular Biology, 2024).

`CC(C)CCn1[se]c2ccccc2c1=O` [N-3mb-bs, N-3-methylbutyl-benzisoselenazol-3(2H)-one]: the “Na+,K+-ATPase activity inhibition, enzyme purified from pig kidney (Figure S4)” value was “both N-allyl-bs and N-3mb-bs showed Na^+, K^+-ATPase inhibitory activity (purified from pig kidney outer medulla)”. Consider `C=CCn1[se]c2ccccc2c1=O` [N-allyl-bs, N-allyl-benzisoselenazol-3(2H)-one], for which the “Na+,K+-ATPase activity inhibition, enzyme purified from pig kidney (Figure S4)” value is “both N-allyl-bs and N-3mb-bs showed Na^+, K^+-ATPase inhibitory activity (purified from pig kidney outer medulla)”.
